Reference: a melting point compilation (Tetko et al.; mined from patent text by program, amines drawn as free bases though some values may be those of a salt)

Compound	melting point [°C]
FC(F)(F)c1cc(-c2ccc(Cl)cc2)nc(-n2cnc(I)c2)n1	258
CC(=O)N1CCN=C1Nc1ccnn1-c1ccc(F)cc1	162 to 164
NC1=Nc2ccccc2C2CCCC12F (stereo not drawn)	174 to 176
CCOC(=O)c1ncn2c1[C@@H]1CCCN1C(=O)c1c(Br)cccc1-2	191 to 192
Cc1cccc(CCOc2ccc(CC3SC(=O)NC3=O)cc2)n1 (stereo not drawn)	156 to 157
NS(=O)(=O)c1ccc(-c2cnn(-c3ccc(F)cc3)c(=O)c2Oc2ccc(F)cc2)cc1	227 to 229
O=C(NN1CCNC1=O)c1cc(=O)c(O)c[nH]1	270 to 275
CCCCn1c(N)c(N=O)c(=O)n(CCCC)c1=O	199 to 205
COC(=O)CNc1cccc(C(F)(F)F)c1	60 to 63
O=C1Cc2ccc(S(=O)(=O)Cl)cc21	80
Cc1nc2cc3c(cc2c(=O)n1COC(=O)C(C)(C)C)C(=O)CC3	203 to 205
Cc1c(F)cc2c(=O)c(C(=O)O)cn(CCF)c2c1F	215 to 217
CCOC(=O)C(=CNc1ncnc2ccc(NS(C)(=O)=O)cc12)C(=O)OCC	200 to 202
N#Cc1cnn2c(C(F)(F)F)cc(-c3cccc(C(F)(F)F)c3)nc12	192
COC(=O)c1ccc(C(=O)NC(C)C)cc1S(=O)(=O)NC(C)(C)C	159 to 160
CCN(CC)C(=O)C1CN2CCC1C(NCc1ccccc1OC)C2C(c1ccccc1)c1ccccc1 (stereo not drawn)	121 to 123
Clc1ccc(C=NOCC2CO2)cc1 (stereo not drawn)	69 to 70
CCCCC(CC)C(=O)NCCCCn1cnc2c(N)nc3ccccc3c21 (stereo not drawn)	163 to 164
Nc1nc(NCCc2ccc(C=CC3CCCCC3)cc2)nc2c1ncn2C1OC(CO)C(O)C1O (stereo not drawn)	161 to 164
O=C(CCCCCCC(=O)c1ccc(F)cc1)c1ccc(F)cc1	123 to 124
CCOC(C)=NNc1ccc([N+](=O)[O-])cc1	102
Cc1nc2c(Cl)cccc2c(=O)n1C1CCC(=O)NC1=O (stereo not drawn)	290 to 292
CCN(CC)CCNc1nc(N)nc(-c2cc(Cl)ccc2Cl)n1	141 to 142

Compound	melting point [°C]
CN1Cc2c(C#CBr)ncn2-c2ccc(F)cc2C1=O	167
O=[N+]([O-])c1c(Cl)cc(Cl)cc1CO	133 to 134
Cc1cc(Cn2nc(C(F)(F)F)cc2C(F)(F)F)ccc1N1C(=O)c2cccc(F)c2C1=O	158 to 159
COC(=O)CC(SC(C)=O)C(CC(C)C)C(=O)NC1CCCCCCCCCCNC1=O (stereo not drawn)	213 to 216
CC(C)(C)NS(=O)(=O)c1ccccc1OC(F)(F)F	137
C=C(C)C(=O)OCCNC(=O)OCCOc1ccccc1-c1ccccc1OCCOC(=O)NCCOC(=O)C(=C)C	72 to 74
CC(C)(C)OC(=O)N[C@H]1CC[C@@H](NC(=O)OC(C)(C)C)CC1	144
CS(=O)(=O)c1ccc(-c2cnn(-c3cc(F)cc(F)c3)c(=O)c2Oc2ccc(F)cc2)cc1	209 to 211
Clc1cccc2c1CSCCCN2	71 to 73
CCOC1=NS(=O)(=O)C(C(=O)OC(C)(C)C)=C1N	128 to 130
CC(=O)OCCCc1cc2c(s1)-n1c(C)nnc1CN=C2c1ccccc1Cl	153 to 155
CCCCCCCCCCCCSc1cc2nc(C(CC)CCCC)oc2cc1[N+](=O)[O-] (stereo not drawn)	108 to 110
CC(CC(C)(C)O)Nc1ncc2cc(Oc3ccc(F)cc3F)c(=O)n(C)c2n1 (stereo not drawn)	159 to 161
O=C(NC/C=C\COc1cc(CN2CCCCC2)ccn1)NC1CC1	102 to 104
Cc1ccc(CN(Cc2ccc(C)cc2)c2nccc(-c3ccc(-c4ccc(N(c5ccccc5)c5ccccc5)cc4)cc3)n2)cc1	153 to 154
O=C(CCC1c2ccccc2-c2ccccc21)N[C@@H](Cc1ccccc1)C(=O)O	194 to 195
CC1CN(c2ccccc2)N=C1NC(=O)C(F)(F)F (stereo not drawn)	142 to 144
CCc1cc(C2(c3ccc(F)c(-c4cncc(F)c4)c3)N=C(N)N(C)C2=O)cc(CC)n1 (stereo not drawn)	155 to 157
CC(C)c1ccc(C=CC(=O)c2ccc(O)c(CC(=O)O)c2)cc1	228
Fc1nccc(I)c1CCCCl	24 to 25
CSSc1ccc([N+](=O)[O-])cc1	42.9 to 44.3
OCCCc1cnoc1-c1ccc(C(F)(F)F)cc1	85 to 86
CC(=O)O[C@H]1C[C@@H](n2cc(C)c(=O)[nH]c2=O)[C@H](O)[C@@H]1O (racemic)	58 to 61

Compound	melting point [°C]
O=C(O)c1cn(-c2csnn2)c2cc(F)c(F)cc2c1=O	239 to 244
NS(=O)(=S)CCCc1ccccc1 (stereo not drawn)	98 to 101
COc1ccc(-c2csc(Nc3ccc(C)cn3)n2)c(OC)c1	157 to 158
CCCCCCC(CCC(=O)O)CC(=O)O (stereo not drawn)	70 to 71
O=C(CC(c1ccccc1)c1ccccc1)NC(Cc1ccccc1)C(=O)O (stereo not drawn)	138 to 140
Cc1cccc(CC(=O)O)c1OCc1nc(OC(C)C)c(C(=O)NCc2ccc(Cl)cc2Cl)s1	125 to 126
c1ccc2c(c1)ncn2CN1CCN(Cn2cnc3ccccc32)CC1	250 to 253
Cc1c(Cl)ccc(Br)c1Cl	32 to 33
C#CCNc1nc(NCC=C)nc2c(C)csc12	95 to 96
CC1CC=C(c2ccc(C(C)C(=O)O)cc2)CC1 (stereo not drawn)	100 to 104
COC(=O)c1c(OCc2ccccc2)ccc2c1CC[C@@H](NC(C)=O)[C@@H]2OC(C)=O (relative stereo)	171 to 172
CCOc1nn(-c2ccc(C(F)(F)F)cn2)cc1CCCOc1nn(-c2ccccc2)cc1CC(=O)O	117 to 118
CCC(O)c1nc2c(C(F)(F)F)cccc2c(O)c1C(=O)Nc1nccs1 (stereo not drawn)	180
Cn1ccc(OC2c3cc(C#N)ccc3OC(C)(C)C2O)cc1=O (stereo not drawn)	202 to 203
N#CCCNC(=O)c1cccc(-c2ccc3c(c2)N(c2ccc(Cl)cc2Cl)CCO3)c1	147 to 148
CCn1cc(C(=O)O)c(=O)c2cc(C=NOCC(=O)O)sc21	249 to 250
NS(=O)(=O)c1cccnc1OCC1CC1	121 to 122
COC(=O)Cn1c(=O)c(=O)[nH]c2cc([N+](=O)[O-])c(Cl)cc21	> 260
CCOc1nc(NCc2ccco2)nc(Nc2ccc3[nH]c(C(F)(F)F)nc3c2)n1	188 to 190
COc1ccc(CNc2nc(SC)ncc2C=O)cc1Cl	124 to 125
Cn1nc(-c2ccc(Cl)cc2)c2c(=O)n3c(nc21)SCC3	256 to 257

Other lines, results leading:

melting point [°C]	Compound
> 300	O=c1c2ccc(O)cc2oc2c1oc1ccccc12
143 to 149	O=C(O)CCc1ccc(-c2ccccc2)cc1
150 to 151	CC(C)c1cccc(COCCCO)c1NC(=O)CC1c2ccccc2Oc2ccccc21
226 to 227	CN1C(=O)Nc2ccccc2C12NC(=O)N(COCc1ccccc1)C2=O (stereo not drawn)
126 to 128	CCN(CC)CCn1nnnc1-c1ccc2oc3ncccc3c(=O)c2c1
189	CN(C(=O)COc1cc(-c2ccccc2)nc2ccccc12)N1CCOCC1
159 to 161	COc1cc(C(C)C)ccc1C1(NC(=O)OC(C)C)C(=O)c2ccccc2C1=O
> 300	C#Cc1ccc2c(c1)-c1c3c(c4c([nH]c5ccccc54)c1C2)C(=O)NC3
124 to 125	COc1ccc(CSc2nnc(-c3ccc4occc4c3)o2)cc1
125 to 128	CS(=O)(=O)Nc1cc(C(=O)C=O)ccc1OCc1ccccc1
102 to 103	ClCc1conc1-c1ccc(-c2ccccc2)cc1
285	O=C(Nc1ccccc1)Nc1ccc2ccc(-c3cccc(Br)c3)nc2n1
133 to 134	CCc1ccc(C(=O)Nc2ccccc2)cc1Nc1cccc(C(F)(F)F)c1
> 300	O=C(O)c1ncn2c1c(=O)[nH]c1ccccc12
199 to 201	CC(=O)OCc1cnc2c(NC(=O)c3c(Cl)cccc3Cl)cccc2c1
60 to 62	COC(=O)C1=CC(=O)C(C)(c2ccccc2)O1 (stereo not drawn)
245 to 247	COc1cc2c(cc1-c1ccccc1F)NC(=O)CC(c1cccc(C#N)c1)=N2
123 to 126	O=C(Nc1cc(-c2cccc(C(F)(F)F)c2)no1)c1c(F)cccc1F

melting point [°C]	Compound
167 to 168	CCOC(=O)Cc1c(C)c2ccc(O)cc2oc1=O
166 to 169	NC(=O)c1ccc(NCc2ccc(F)cc2)cn1
241 to 242	CC(=O)Nc1ccc2oc(-c3ccccc3)c(O)c(=O)c2c1
160 to 163	C1=Cc2cc3ccccc3cc2C1
160	Cc1ccccc1C1=C(CC(=O)Nc2c(C(C)C)cccc2C(C)C)CN(C)c2ccc(Cl)cc21
179	CCOC(Nc1ccc(C(=O)O)cc1)C(=O)c1ccc(-c2ccccc2)cc1 (stereo not drawn)
210 to 211	CCCCc1nc(C)n2[nH]c(=O)nc2c1Cc1ccc(-c2ccccc2C(=O)O)cc1
274 to 275	O=C1C2=C(CCCC2)C(=O)N1c1cc2c(cc1F)nnn2-c1ccccc1O
104 to 108	CC1c2cccc3c2N(CC3)c2ccccc2N1C(=O)CN(C)C (stereo not drawn)
141 to 142	COc1cc2c(cc1OC)CC(=O)N(Cc1ccccc1)CC2
154 to 155	CC(=O)C1=C(O)C(C(=O)C=Cc2ccccc2)C(=O)OC1=O (stereo not drawn)
155 to 157	COC(=O)c1cn2c(C)c(-c3ccccc3)sc2n1
161 to 162	O=C(O)C(=O)c1ccc(SCCOc2ccc3ccccc3c2)cc1
114 to 116	COC(=O)COc1coc2ccccc2c1=O
63 to 65	CC(=O)c1ccc(OCC(O)COc2ccccc2)cc1O (stereo not drawn)
73.5 to 75	COc1ccc(C(=O)c2ccccc2)cc1OC1CCCC1
146 to 155	COC(=O)C1(CN2CCC(Cc3ccc(F)cc3)CC2)CC(c2ccc3[nH]c(=O)oc3c2)=NO1 (stereo not drawn)
214 to 215	CN(c1cccc2cc(-c3nc(CC(=O)O)cs3)[nH]c12)S(=O)(=O)c1cccs1
